We go through 1 compound from PMC8802628, “Selective activation of PFKL suppresses the phagocytic oxidative burst” (Cell, 2021).

One experiment deals with E. coli. The experiment in a line: Phagocytosis assay: E. coli C.F.U. recovered from PMNs. The experiment is classed as cell-based, human. Conditions: neutrophils pretreated 30 min. How it is done:
Neutrophils (1 × 10^6) were cultured in 6-well tissue in RPMI medium containing DMSO vehicle, 0.5 μM NA-11, 0.5 μM NA-4, 100 μM Apocynin or 100 μM thionicotinamide (TN) for 30 min. E. coli grown in LB broth overnight (2 mL) were opsonized with human serum (1 mL pooled from three donors) for 1 h at room temperature. Opsonized bacteria were washed with PBS, resuspended in LB broth to an OD600of 0.1 and then added to cultured neutrophils at an MOI of 1 for 30 min. Cells were washed with medium three times and then cultured with 300 μg/mL gentamicin for 2 h to kill any extracellular bacteria. Cells were then washed again, twice with medium and once with PBS. To release phagocytosed bacteria, neutrophils were lysed in 0.05% saponin in PBS. Lysates were passed through a 25’ gauge needed several times and the number of viable phagocytosed bacteria was determined by colony counting.

In the next experiment the target is T1, PFKL (Homo sapiens, UniProt P17858).
T1 construct: endogenous in cells; host or cells: THP-1 cell lysate
T1 sequence (P17858 2-780 limits assumed): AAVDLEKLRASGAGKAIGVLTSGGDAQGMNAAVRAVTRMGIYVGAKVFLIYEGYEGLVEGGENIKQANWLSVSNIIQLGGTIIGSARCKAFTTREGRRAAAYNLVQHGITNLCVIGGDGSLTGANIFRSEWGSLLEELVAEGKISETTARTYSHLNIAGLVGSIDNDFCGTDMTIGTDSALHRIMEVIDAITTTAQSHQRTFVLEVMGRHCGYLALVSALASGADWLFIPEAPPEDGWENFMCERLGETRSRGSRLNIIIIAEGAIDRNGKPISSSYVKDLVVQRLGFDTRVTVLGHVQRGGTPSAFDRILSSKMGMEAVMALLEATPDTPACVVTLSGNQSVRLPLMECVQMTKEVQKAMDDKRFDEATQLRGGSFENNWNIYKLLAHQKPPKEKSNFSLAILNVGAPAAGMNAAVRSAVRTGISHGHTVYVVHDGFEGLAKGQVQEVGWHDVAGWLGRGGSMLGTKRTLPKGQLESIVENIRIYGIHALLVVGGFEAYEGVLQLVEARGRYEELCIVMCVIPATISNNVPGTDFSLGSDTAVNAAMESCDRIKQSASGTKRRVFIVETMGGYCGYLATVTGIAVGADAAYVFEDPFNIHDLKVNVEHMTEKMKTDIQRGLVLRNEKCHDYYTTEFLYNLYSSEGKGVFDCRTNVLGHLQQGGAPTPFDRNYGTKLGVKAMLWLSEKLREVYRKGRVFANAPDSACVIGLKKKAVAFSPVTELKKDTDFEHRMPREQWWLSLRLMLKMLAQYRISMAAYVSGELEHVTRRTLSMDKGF
The experiment in a line: Photoaffinity labeling pull-down in human blood leukocytes. The experiment is classed as binding. As to conditions: 1 μM probe, competition with 10 μM NA-11. As to the method:
Buffy coats (100 mL) were diluted with ice-cold water (540 mL) for 30 s to lyse red blood cells. Following addition of 10 x HBSS buffer (50 mL) leukocytes were pelleted for 3 min at 300 x g, then washed twice in D-PBS and resuspended in RPMI medium. Cells (2 × 10^7) were plated on 15-cm dishes in DMSO vehicle, 1 μM PALP1 or 1 μM PALP6 for 30 min at 37°C. For competition, 10 μM NA-11 was added for 15 min, and then 1 μM PALP1 was added for an additional 30 min. To crosslink the photoaffinity probe, cells were UV-irradiated (High intensity mercury spot lamp, 100W, 365 nm, UVP) in RPMI for 5 min on ice. Cells were lysed in 200 μL 10 mM Tris pH 7.5, 150 mM NaCl, 1% NP-40, 2.5 mM MgCl2, 0.5 mM CaCl2, 2% glycerol, 10 μg/mL DNase-I, and 1 x EDTA-free Protease inhibitor cocktail. Lysates from 5 plates for each condition were pooled and incubate 10 min on ice.
Biotin-DADPS tagging, biotin-streptavidin affinity purification, and on-bead digestion were performed as described ([Hewings et al., 2018]). Briefly, lysates were cleared by centrifugation and the lysate concentration adjusted to 5 mg/mL. Streptavidin Ultralink Resin (100 μL of 50% slurry, Pierce) was washed twice with PBS and mixed with 1 mL of lysate for 30 min at room temperature. […]
For the classical TPP, quantitative data from each temperature were used to generate a thermal titration curve and calculate a melting point. […]

For the compound `CC(=O)Nc1ccc2c(c1)OCc1cc(-c3ccccc3C#CCCCO)nn1C2` [NA-11], the “killing of phagocytosed bacteria (bacterial colonies recovered)” value with E. coli is reported as “produced more bacterial colonies than control neutrophils”. Besides, the “photoaffinity labeling / pull-down of PFKL” value at PFKL is listed as “competed effectively by NA-11”.
